Activity calls are given as the source filed them. No cut-off for these calls is given here.
Experiments:
[1] = Antimigratory activity against human PC3M cells at 20 uM after 12 hrs by crystal violet staining based transwell migration assay; type: functional, PC-3M
PC-3M [2] = assay: Induction of apoptosis in human PC3M cells assessed as late apoptotic cells at 5 uM after 48 hrs by annexin V-FITC/propidium iodide staining based flow cytometry (reference value: 0.32%); type: functional
[3] = Selectivity index, ratio of IC50 for HAF cells to IC50 for human HT-29 cells; type: functional
PC-3M [4] = assay: Induction of apoptosis in human PC3M cells assessed as early apoptotic cells at 5 uM after 48 hrs by annexin V-FITC/propidium iodide staining based flow cytometry (reference value: 31.94%); type: functional
PC-3M [5] = assay: Induction of apoptosis in human PC3M cells assessed as late apoptotic cells at 2.5 uM after 24 hrs by annexin V-FITC/propidium iodide staining based flow cytometry (reference value: 0.97%); type: functional
PC-3M [6] = assay: Induction of apoptosis in human PC3M cells assessed as late apoptotic cells at 10 uM after 24 hrs by annexin V-FITC/propidium iodide staining based flow cytometry (reference value: 0.97%); type: functional
[7] = Antiproliferative activity against human HT-29 cells after 48 hrs by SRB assay; type: functional, cell-based; settings: HT-29, 48 h
[8] = Cell cycle arrest in human PC3M cells assessed as accumulation at G1 phase at 20 uM after 24 hrs by propidium iodide staining based flow cytometry (reference value: 56.82%); type: functional; settings: PC-3M
[9] = Antiproliferative activity against HAF cells after 48 hrs by SRB assay; type: cell-based; settings: Homo sapiens
PC-3M [10] = assay: Inhibition of colony formation in human PC3M cells after 7 days by crystal violet staining based assay; type: functional, cell-based
PC-3M [11] = assay: Antimigratory activity against human PC3M cells after 12 hrs by crystal violet staining based transwell migration assay; type: functional, cell-based
[12] = Selectivity index, ratio of IC50 for HAF cells to IC50 for human ES2 cells; type: functional
[13] = Cell cycle arrest in human PC3M cells assessed as accumulation at G1 phase at 5 uM after 24 hrs by propidium iodide staining based flow cytometry (reference value: 56.82%); type: functional; settings: PC-3M
[14] = Antiproliferative activity against human ES2 cells after 48 hrs by SRB assay; type: functional, cell-based; settings: ES-2, 48 h
PC-3M [15] = assay: Induction of apoptosis in human PC3M cells assessed as early apoptotic cells at 20 uM after 48 hrs by annexin V-FITC/propidium iodide staining based flow cytometry (reference value: 31.94%); type: functional
PC-3M [16] = assay: Induction of apoptosis in human PC3M cells assessed as early apoptotic cells at 5 uM after 24 hrs by annexin V-FITC/propidium iodide staining based flow cytometry (reference value: 15.20%); type: functional
PC-3M [17] = assay: Induction of apoptosis in human PC3M cells assessed as late apoptotic cells at 10 uM after 48 hrs by annexin V-FITC/propidium iodide staining based flow cytometry (reference value: 0.32%); type: functional
[18] = Antimigratory activity against human PC3M cells at 2.5 uM after 12 hrs by crystal violet staining based transwell migration assay relative to control; type: functional, PC-3M
PC-3M [19] = assay: Induction of apoptosis in human PC3M cells assessed as early apoptotic cells at 2.5 uM after 48 hrs by annexin V-FITC/propidium iodide staining based flow cytometry (reference value: 31.94%); type: functional
PC-3M [20] = assay: Induction of apoptosis in human PC3M cells assessed as late apoptotic cells at 20 uM after 24 hrs by annexin V-FITC/propidium iodide staining based flow cytometry (reference value: 0.97%); type: functional
[21] = Antiproliferative activity against human PC3M cells after 48 hrs by SRB assay; type: functional, cell-based; settings: PC-3M
[22] = Cell cycle arrest in human PC3M cells assessed as accumulation at G1 phase at 10 uM after 24 hrs by propidium iodide staining based flow cytometry (reference value: 56.82%); type: functional; settings: PC-3M
PC-3M [23] = assay: Induction of apoptosis in human PC3M cells assessed as late apoptotic cells at 5 uM after 24 hrs by annexin V-FITC/propidium iodide staining based flow cytometry (reference value: 0.97%); type: functional
PC-3M [24] = assay: Induction of apoptosis in human PC3M cells assessed as early apoptotic cells at 2.5 uM after 24 hrs by annexin V-FITC/propidium iodide staining based flow cytometry (reference value: 15.20%); type: functional
[25] = Cell cycle arrest in human PC3M cells assessed as accumulation at G1 phase after 24 hrs by propidium iodide staining based flow cytometry; type: functional; settings: PC-3M
[26] = Inhibition of colony formation in human PC3M cells at 5 uM after 7 days by crystal violet staining based assay; type: functional; settings: PC-3M, 168 h
PC-3M [27] = assay: Inhibition of colony formation in human PC3M cells at 10 uM after 7 days by crystal violet staining based assay; type: functional, cell-based
PC-3M [28] = assay: Induction of apoptosis in human PC3M cells assessed as early apoptotic cells at 10 uM after 48 hrs by annexin V-FITC/propidium iodide staining based flow cytometry (reference value: 31.94%); type: functional
PC-3M [29] = assay: Induction of apoptosis in human PC3M cells assessed as late apoptotic cells at 2.5 uM after 48 hrs by annexin V-FITC/propidium iodide staining based flow cytometry (reference value: 0.32%); type: functional
[30] = Cell cycle arrest in human PC3M cells assessed as reduction in S phase at 2.5 to 20 uM after 24 hrs by propidium iodide staining based flow cytometry; type: functional; settings: PC-3M
PC-3M [31] = assay: Induction of apoptosis in human PC3M cells assessed as early apoptotic cells at 20 uM after 24 hrs by annexin V-FITC/propidium iodide staining based flow cytometry (reference value: 15.20%); type: functional
PC-3M [32] = assay: Induction of apoptosis in human PC3M cells assessed as late apoptotic cells at 20 uM after 48 hrs by annexin V-FITC/propidium iodide staining based flow cytometry (reference value: 0.32%); type: functional
PC-3M [33] = assay: Induction of apoptosis in human PC3M cells assessed as early apoptotic cells at 10 uM after 24 hrs by annexin V-FITC/propidium iodide staining based flow cytometry (reference value: 15.20%); type: functional
[34] = Cell cycle arrest in human PC3M cells assessed as accumulation at G1 phase at 2.5 uM after 24 hrs by propidium iodide staining based flow cytometry (reference value: 56.82%); type: functional; settings: PC-3M
[35] = Selectivity index, ratio of IC50 for HAF cells to IC50 for human PC3M cells; type: functional

Q: Which results are given for `C=C(C)C1CC[C@H]2[C@@H]3CC[C@H]([C@H](C)CCC(=O)N4CCNCC4)[C@@]3(C)CC[C@@H]2[C@@]1(C)CCC(=O)N1CCNCC1` (stereo not given in full)?
A: Activity [1]: 100%; Activity (PC-3M [2]): 0.48%; Ratio IC50 [3]: 6.1; Activity (PC-3M [4]): 30.18%; Activity (PC-3M [5]): 0.61%; Activity (PC-3M [6]): 0.6%; IC50 [7]: 4.58 µM; Activity [8]: 79%; IC50 [9]: 28.1 µM; inhibition (PC-3M [10]): Dose-dependent effect; Activity (PC-3M [11]): Dose-dependent effect; Ratio IC50 [12]: 7.3; Activity [13]: 66.3%; IC50 [14]: 3.86 µM; Activity (PC-3M [15]): 22.72%; Activity (PC-3M [16]): 13.78%; Activity (PC-3M [17]): 0.79%; Activity [18]: 50%; Activity (PC-3M [19]): 30.07%; Activity (PC-3M [20]): 0.9%; IC50 [21]: 1.07 µM; Activity [22]: 69%; Activity (PC-3M [23]): 0.87%; Activity (PC-3M [24]): 15.36%; Activity [25]: Dose-dependent effect; inhibition at 5 µM [26]: 70%; inhibition (PC-3M [27]): Active; Activity (PC-3M [28]): 29.52%; Activity (PC-3M [29]): 0.44%; Activity [30]: Active; Activity (PC-3M [31]): 14.5%; Activity (PC-3M [32]): 1.31%; Activity (PC-3M [33]): 14.66%; Activity [34]: 58.4%; Ratio IC50 [35]: 26.3

From ChEMBL document CHEMBL3867430, “Novel 3,4-seco bile acid diamides as selective anticancer proliferation and migration agents” (Eur J Med Chem, 2016)
